In patent publication US20240238426A1, “PROTEIN ACYLATION MODULATION BY HETEROBIFUNCTIONAL MOLECULES” (THE SCRIPPS RESEARCH INSTITUTE, priority 2021, published 2024):

What was measured:
[1] = system: p21 (CDKNIA), PUMA, MDM2, and GLS2; assay: Immunoblot of p53 target gene expression in FKBP12^F36V-p53 H1299 cells; assay type: cell-based, Human; settings: 8 hr; for effect of co-treatment on AceTAG-1 induced p21 expression: 3 μM AceTAG-1 with 10 μM A485 or 50 μM FKBP12^F36V-binding ligand, FIG. 7E
Procedure: (§1) Immunoblotting: Cells were harvested in cold DPBS by scraping and washed with cold DPBS twice. Cell pellets were resuspended in DPBS supplemented with 5 mM sodium butyrate, 20 mM Nicotinamide, and 1X Halt Protease Inhibitor Cocktail and lysed by sonication (15 ms on, 40 ms off, 15% amplitude, 1s total on x 3). Protein concentration was determined using DC Protein Assay (Bio-Rad) and absorbance read using a CLARIOstar plate reader following manufacturer's instructions. Samples with equal protein content were boiled in 4X SDS gel loading buffer for 10 min. Proteins were separated by 10%, 12.5%, or 15% SDS-polyacrylamide gel electrophoresis and transferred to PVDF membranes using Trans-Blot Turbo RTA Mini […] LF PVDF Transfer Kit (Bio-Rad). Membranes were incubated for 1 h at room temperature with blocking buffer, followed by incubating overnight at 4° C. with primary antibodies. After washing in TBST, the secondary antibodies were incubated with the membranes at room temperature for 1 h. The membranes were washed with TBST for three times and visualized on a Bio-Rad ChemiDoc MP Imaging System with Clarity Max Western ECL substrate (Bio-Rad) or SuperSignal West Femto Chemiluminescent substrate proprietary luminol and peroxide solution kit (Thermo Scientific Pierce).

[2] = system: T1, FKBP12^F36V-p53 (Homo sapiens, F37V); assay: Immunoblot analysis of FKBP12^F36V-p53 acetylation in H1299 cells; assay type: cell-based; settings: 625 nM AceTAG-1 with 50 μM FKBP ligand or 1 μM A485, 2 hr, FIG. 6D
T1 construct: expressed in transfected cells
Procedure: (§2) Lentivirus Production and Transduction: Lentiviral production was performed using HEK293T cells, which were co-transfected with pMD2.G (Addgene, #12259), psPAX2 (Addgene, #12260), and AceTAG lentiviral plasmids using PEI (Polysciences Inc). Viral particles were collected 72 h after transfection and filtered through a […] membrane. A range of dilutions of the lentivirus in DMEM complete and 10 μg/mL polybrene were added to HeLa, H1299, or HeLa RelA KO cell lines. Transduced cells were selected with 1 μg/mL or 2 μg/mL puromycin.
as §1

[3] = system: T2, FKBP12^F36V-RelA (Homo sapiens, F37V); assay: Immunoblot analysis of FKBP12^F36V-RelA acetylation in RelA-/- HeLa cells; assay type: cell-based; settings: 625 nM AceTAG-1 with 50 μM FKBP ligand or 1 μM A485, 2 hr, FIG. 6B
T2 construct: expressed in transfected cells
Procedure: as §2, §1

H3.3-FKBP12^F36V = biological target: T3, H3.3-FKBP12^F36V (Homo sapiens, UniProt P62942+Q09472, F37V); assay: Immunoblot analysis of H3.3-FKBP12^F36V acetylation in HeLa cells; assay type: cell-based; settings: for acetylation of H3.3: HeLa cells, FIG. 8
T3 construct: expressed in transfected cells
Procedure: as §2, §1

[4] = biological target: 6xHis-p300-BRD (active motif #31372) (UniProt Q09472); assay: AlphaScreen, GST-FKBP12^F36V and 6xHis-p300-BRD with a titration of the small molecule AceTAG-1; bell-shaped curve
[5] = system: H3.3-FKBP12^F36V HeLa cells; assay: Quantitative acetylproteomics of H3.3-FKBP12^F36V HeLa cells; assay type: cell-based, Human; settings: 2 μM SAHA, FIG. 5E
Procedure: Sample preparation: Frozen cell pellets were thawed on ice and lysed in a buffer containing 50 mM Tris-HCl (pH 7.5), 150 mM NaCl, 1 mM EDTA, 1% NP-40, 0.1% sodium deoxycholate, 5 mM sodium butyrate, 10 mM nicotinamide and 1X Pierce™ protease inhibitor cocktail. Cells were sonicated to ensure complete lysis, mixed with 5 M NaCl at a ratio of 1:10 with sample volume and incubated on ice for 15 min to release chromatin-bound proteins. Cell lysates were then sonicated again to shear genomic DNA. Cellular debris was cleared by centrifugation at 16,000 g for 20 min at 4° C., protein concentration was determined using a Pierce™ BCA assay and ˜10 mg of protein was aliquoted for acetyl-proteomic analysis. Proteins were denatured with 8 M urea in 50 mM HEPES, reduced with 5 mM dithiothreitol for 30 min at 56° C., then alkylated with 5 mM iodoacetamide for 20 min in the dark at RT. Following alkylation, proteins were precipitated using chloroform-methanol as previously described, and protein pellets were dried at 56° C. for 15 min. Proteins pellets were resuspended in 1 M urea in 50 mM HEPES and digested in a two-step process with LysC and trypsin as previously described. Digested peptides were desalted using Phenomenex Strata-X polymeric reverse phase extraction cartridges using the following protocol. Cartridges were conditioned with 1 mL 100% acetonitrile, 1 mL 80% acetonitrile/0.5% AA, and 1 mL 0.1% TFA. Peptides were then loaded on to the cartridge at a reduced flow rate and desalted with 5 mL 0.1% TFA followed by 1 mL 0.5% AA. Desalted peptides were eluted using 1 mL 40% acetonitrile/0.5% AA followed by 1 mL 80% acetonitrile/0.5% AA and lyophilized. Digested peptides were quantified using the Pierce™ Quantitative Colorimetric Peptide Assay and […] was aliquoted from each for total protein analysis while the remaining peptide was lyophilized and retained for acetyl-peptide enrichment.
Acetyl-peptide Enrichment: Acetyl-peptides were enriched using the PTMScan® Acetyl-Lysine Motif [Ac-K] Kit according to manufacturer instructions. […]

T3 sequence (P62942 2-108 F37V limits assumed): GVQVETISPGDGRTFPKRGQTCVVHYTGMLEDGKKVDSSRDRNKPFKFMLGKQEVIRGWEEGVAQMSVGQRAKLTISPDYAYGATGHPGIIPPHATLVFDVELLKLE
T3 sequence (Q09472 2-2414 limits assumed, stated change not applied): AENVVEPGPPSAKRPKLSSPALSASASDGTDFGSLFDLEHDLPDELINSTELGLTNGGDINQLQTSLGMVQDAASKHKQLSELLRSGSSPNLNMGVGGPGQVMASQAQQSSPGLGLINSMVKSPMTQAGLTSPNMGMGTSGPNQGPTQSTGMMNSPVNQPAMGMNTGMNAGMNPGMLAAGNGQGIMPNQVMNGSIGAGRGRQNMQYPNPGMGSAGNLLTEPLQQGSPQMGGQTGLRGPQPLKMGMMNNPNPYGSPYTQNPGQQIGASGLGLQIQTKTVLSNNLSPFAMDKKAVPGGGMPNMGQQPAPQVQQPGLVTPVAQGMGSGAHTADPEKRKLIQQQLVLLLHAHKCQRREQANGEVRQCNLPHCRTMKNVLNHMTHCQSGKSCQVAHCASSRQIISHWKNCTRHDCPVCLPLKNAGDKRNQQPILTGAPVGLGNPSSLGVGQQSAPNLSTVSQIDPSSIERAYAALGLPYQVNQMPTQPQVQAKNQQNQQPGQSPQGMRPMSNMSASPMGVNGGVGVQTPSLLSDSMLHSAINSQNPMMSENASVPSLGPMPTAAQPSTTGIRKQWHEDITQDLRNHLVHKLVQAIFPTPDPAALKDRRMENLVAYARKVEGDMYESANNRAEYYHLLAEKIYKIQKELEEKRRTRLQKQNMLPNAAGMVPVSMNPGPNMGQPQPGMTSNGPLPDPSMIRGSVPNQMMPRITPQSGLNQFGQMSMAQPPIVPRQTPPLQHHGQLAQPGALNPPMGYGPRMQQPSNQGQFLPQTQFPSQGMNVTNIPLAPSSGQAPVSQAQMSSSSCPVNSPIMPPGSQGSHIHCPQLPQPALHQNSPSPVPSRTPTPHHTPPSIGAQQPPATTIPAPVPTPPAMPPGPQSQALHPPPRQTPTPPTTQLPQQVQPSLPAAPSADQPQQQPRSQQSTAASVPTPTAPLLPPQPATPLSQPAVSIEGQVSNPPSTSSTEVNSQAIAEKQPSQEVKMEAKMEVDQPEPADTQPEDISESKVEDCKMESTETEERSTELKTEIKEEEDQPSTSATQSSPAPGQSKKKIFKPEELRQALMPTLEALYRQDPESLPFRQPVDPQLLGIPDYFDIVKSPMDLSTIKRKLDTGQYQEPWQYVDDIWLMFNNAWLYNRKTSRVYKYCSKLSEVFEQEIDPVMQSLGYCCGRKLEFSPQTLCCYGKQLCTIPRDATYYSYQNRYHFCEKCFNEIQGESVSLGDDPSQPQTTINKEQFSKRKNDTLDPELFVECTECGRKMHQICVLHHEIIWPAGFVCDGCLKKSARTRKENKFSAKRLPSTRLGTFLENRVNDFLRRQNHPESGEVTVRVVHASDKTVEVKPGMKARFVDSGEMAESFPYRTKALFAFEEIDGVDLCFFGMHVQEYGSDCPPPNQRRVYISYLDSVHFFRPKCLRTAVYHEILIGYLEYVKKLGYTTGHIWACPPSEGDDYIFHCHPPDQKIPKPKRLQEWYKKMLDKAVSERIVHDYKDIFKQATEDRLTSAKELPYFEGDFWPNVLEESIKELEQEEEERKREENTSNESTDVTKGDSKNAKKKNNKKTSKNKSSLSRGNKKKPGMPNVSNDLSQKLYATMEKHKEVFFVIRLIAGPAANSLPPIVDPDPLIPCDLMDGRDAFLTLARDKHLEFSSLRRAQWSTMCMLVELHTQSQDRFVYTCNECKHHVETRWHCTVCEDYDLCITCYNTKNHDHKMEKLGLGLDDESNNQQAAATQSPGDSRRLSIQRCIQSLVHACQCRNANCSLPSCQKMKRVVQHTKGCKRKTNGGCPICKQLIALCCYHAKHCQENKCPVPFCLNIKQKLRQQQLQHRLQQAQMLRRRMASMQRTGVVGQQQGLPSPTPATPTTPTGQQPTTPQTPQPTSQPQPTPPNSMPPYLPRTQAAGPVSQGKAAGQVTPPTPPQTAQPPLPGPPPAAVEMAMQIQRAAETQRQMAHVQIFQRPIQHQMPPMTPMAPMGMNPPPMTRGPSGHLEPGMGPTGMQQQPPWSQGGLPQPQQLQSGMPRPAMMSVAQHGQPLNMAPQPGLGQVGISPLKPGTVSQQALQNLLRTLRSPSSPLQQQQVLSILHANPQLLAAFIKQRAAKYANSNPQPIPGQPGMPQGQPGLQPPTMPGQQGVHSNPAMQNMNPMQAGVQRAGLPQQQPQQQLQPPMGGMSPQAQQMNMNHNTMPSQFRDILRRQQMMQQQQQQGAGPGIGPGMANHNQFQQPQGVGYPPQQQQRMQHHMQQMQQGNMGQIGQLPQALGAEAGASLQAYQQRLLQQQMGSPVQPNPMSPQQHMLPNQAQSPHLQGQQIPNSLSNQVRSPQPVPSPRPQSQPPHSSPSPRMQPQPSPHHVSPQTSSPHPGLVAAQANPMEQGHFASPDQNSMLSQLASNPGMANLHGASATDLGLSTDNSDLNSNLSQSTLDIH
6xHis-p300-BRD (active motif #31372), sequence (Q09472 1040-1161 limits assumed): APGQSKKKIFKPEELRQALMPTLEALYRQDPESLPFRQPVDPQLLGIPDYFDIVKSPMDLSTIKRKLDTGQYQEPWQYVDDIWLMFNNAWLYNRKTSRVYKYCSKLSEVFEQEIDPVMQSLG
T2 sequence (P62942 2-108 F37V limits assumed): as the sequence (P62942 2-108 F37V limits assumed) above
T2 sequence (Q09472 2-2414 limits assumed, stated change not applied, further chain): as the sequence (Q09472 2-2414 limits assumed, stated change not applied) above
T1 sequence (P62942 2-108 F37V limits assumed): as the sequence (P62942 2-108 F37V limits assumed) above
T1 sequence (Q09472 2-2414 limits assumed, stated change not applied, further chain): as the sequence (Q09472 2-2414 limits assumed, stated change not applied) above

In the case of `CNC(=O)Nc1ccc2c(c1)CC[C@@]21OC(=O)N(CC(=O)N(Cc2ccc(F)cc2)[C@@H](C)C(F)(F)F)C1=O` [A485, reference compound], the “effect of co-treatment on AceTAG-1 induced p21 expression” value [1] is reported as “blocked”.
In the case of `CCCNC(=O)COc1cccc([C@@H](CCc2ccc(OC)c(OC)c2)OC(=O)[C@@H]2CCCCN2C(=O)[C@@H](CC)c2cc(OC)c(OC)c(OC)c2)c1` [FKBP-c, (R)-3-(3,4-dimethoxyphenyl)-1-(3-(2-oxo-2-(propylamino)ethoxy)phenyl)propyl (S)-1-((S)-2-(3,4,5-trimethoxyphenyl)butanoyl)piperidine-2-carboxylate], the “effect of co-treatment on AceTAG-1 induced p53 acetylation” value [2] is reported as “blockade of induced acetylation”, the “effect of co-treatment on AceTAG-1 induced RelA acetylation” value [3] is reported as “blockade of induced acetylation” and the “effect of co-treatment on AceTAG-1 induced acetylation of H3.3-FKBP12^F36V” value (H3.3-FKBP12^F36V; 625 nM AceTAG-1 with 50 μM FKBP ligand or 1 μM A485, 2 hr, FIG. 4D) is reported as “blocked”. For the same molecule, the “effect of co-treatment on AceTAG-1 induced p21 expression” value [1] was “blocked” and the “p21 expression level with ligand alone” value ([1]; 3 μM, compared to 3 μM AceTAG-1, FIG. 7E) was “neither p300 nor FKBP ligand alone increases p21 expression level”.
In the case of “GST-FKBP12^F36V (from UniProt P62942 2-108)”, the AceTAG-1 concentration at maximum ternary complex formation [4] is reported as 1 µM.
For `CC[C@H](C(=O)N1CCCC[C@H]1C(=O)O[C@H](CCc1ccc(OC)c(OC)c1)c1cccc(OCC(=O)NCCCCCCCC(=O)NCCOc2ccc(CCc3nc4cc(-c5c(C)noc5C)ccc4n3CCN3CCOCC3)cc2)c1)c1cc(OC)c(OC)c(OC)c1` [AceTAG-3, (R)-3-(3,4-dimethoxyphenyl)-1-(3-(2-((8-((2-(4-(2-(5-(3,5-dimethylisoxazol-4-yl)-1-(2-morpholinoethyl)-1H-benzo[d]imidazol-2-yl)ethyl)phenoxy)ethyl)amino)-8-oxooctyl)amino)-2-oxoethoxy)phenyl)propyl (S)-1-((S)-2-(3,4,5-trimethoxyphenyl)butanoyl)piperidine-2-carboxylate], the “acetylation of H3.3” value (H3.3-FKBP12^F36V) was “significant acetylation of H3.3”.
With `CC[C@H](C(=O)N1CCCC[C@H]1C(=O)O[C@H](CCc1ccc(OC)c(OC)c1)c1cccc(OCC(=O)NCCOCCOCCOCCC(=O)NCCOc2ccc(CCc3nc4cc(-c5c(C)noc5C)ccc4n3CCN3CCOCC3)cc2)c1)c1cc(OC)c(OC)c(OC)c1` [AceTAG-2, (R)-3-(3,4-dimethoxyphenyl)-1-(3-((18-(4-(2-(5-(3,5-dimethylisoxazol-4-yl)-1-(2-morpholinoethyl)-1H-benzo[d]imidazol-2-yl)ethyl)phenoxy)-2,15-dioxo-6,9,12-trioxa-3,16-diazaoctadecyl)oxy)phenyl)propyl (S)-1-((S)-2-(3,4,5-trimethoxyphenyl)butanoyl)piperidine-2-carboxylate] the “acetylation of H3.3” value (H3.3-FKBP12^F36V) was “significant acetylation of H3.3”.
`CC[C@H](C(=O)N1CCCC[C@H]1C(=O)OC(CCc1ccc(OC)c(OC)c1)c1cccc(OCC(=O)NCCCCCCCC(=O)NCCOc2ccc(CCc3nc4cc(-c5c(C)noc5C)ccc4n3CCN3CCOCC3)cc2)c1)c1cc(OC)c(OC)c(OC)c1` (some centres unmarked) [AceTAG-4] was tested, and the “acetylation of H3.3” value (H3.3-FKBP12^F36V) was “significant acetylation of H3.3”.
For `O=C(CCCCCCC(=O)Nc1ccccc1)NO` [SAHA, Vorinostat, reference compound], the “number of proteins with increased acetylation relative to DMSO” value [5] was ~30 proteins.
